Measured values published in the supplement of paper PMC10627819.

Columns and labels:
S. pneumoniae D39V [1] = test: fitness (endpoint OD595 vs no drug) (fraction); higher = more growth
Outline: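 Fitness expresses the optical density reached at the stationary-phase transition as a fraction of the robust mean of no-drug control wells. It is capped at 1. Measurements were OD595 every 30 min for 14 h at 37 °C after inoculation of 384-well plates at OD595 0.01 (30 µl, or 55 µl for S. pneumoniae), minus the first reading.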

B. subtilis 168 = test: Bliss interaction score (quartile over a dose matrix) (fitness difference); higher = more antagonism (negative = synergy)
Outline: (§1)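 Fitness is OD595 at stationary-phase entry relative to the plate's robust no-drug mean, capped at 1. Single-drug fitness was inferred from combinations. The Bliss score is observed minus product-expected fitness, summarised by quartiles over technical, biological and donor/recipient replicates.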

S. aureus DSM 20231 = test: as above
Outline: as §1

S. aureus Newman = test: as above
Outline: as §1

S. pneumoniae D39V [2] = test: as above
Outline: as §1
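Wherever Bliss interaction score (quartile over a dose matrix) is given: first quartile when negative (synergy) and third quartile when positive (antagonism).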

CO/N=C(\C(=O)N[C@@H]1C(=O)N2C(C(=O)O)=C(COC(C)=O)CS[C@H]12)c1csc(N)n1 [Cefotaxime] + CO[C@H]1/C=C/O[C@@]2(C)Oc3c(C)c(O)c4c(O)c(c(/C=N/N5CCN(C)CC5)c(O)c4c3C2=O)NC(=O)/C(C)=C\C=C\[C@H](C)[C@H](O)[C@@H](C)[C@@H](O)[C@@H](C)[C@H](OC(C)=O)[C@@H]1C [Rifampicin]
fitness (S. pneumoniae D39V [1]; first compound 0.0018 µg/mL, partner 0.025 µg/mL): 0.96
fitness (S. pneumoniae D39V [1]; first compound 0.0018 µg/mL, partner 0.2 µg/mL, one replicate): 0
fitness (S. pneumoniae D39V [1]; first compound 0.0035 µg/mL, partner 0.025 µg/mL): 0.964
fitness (S. pneumoniae D39V [1]; first compound 0.0035 µg/mL, partner 0.2 µg/mL, one replicate): 0
fitness (S. pneumoniae D39V [1]; first compound 0.007 µg/mL, partner 0.025 µg/mL): 0.798
fitness (S. pneumoniae D39V [1]; first compound 0.007 µg/mL, partner 0.1 µg/mL): 0.159
fitness (S. pneumoniae D39V [1]; first compound 0.007 µg/mL, partner 0.2 µg/mL, one replicate): 0
Bliss interaction score (B. subtilis 168): 0.0961
Bliss interaction score (S. aureus DSM 20231): 0.0866
Bliss interaction score (S. aureus Newman): 0.0597
Bliss interaction score (S. pneumoniae D39V [2]): -0.0838

CO/N=C(\C(=O)N[C@@H]1C(=O)N2C(C(=O)O)=C(COC(C)=O)CS[C@H]12)c1csc(N)n1 [Cefotaxime] + C[C@@H](O)[C@H]1C(=O)N2C(C(=O)O)=C(SCCNC=N)C[C@H]12 [Imipenem]
fitness (S. pneumoniae D39V [1]; first compound 0.0018 µg/mL, partner 0.005 µg/mL): 0.966
fitness (S. pneumoniae D39V [1]; first compound 0.0018 µg/mL, partner 0.0065 µg/mL): 0.976
fitness (S. pneumoniae D39V [1]; first compound 0.0018 µg/mL, partner 0.01 µg/mL): 0.937
fitness (S. pneumoniae D39V [1]; first compound 0.0018 µg/mL, partner 0.013 µg/mL): ≥ 1
fitness (S. pneumoniae D39V [1]; first compound 0.0018 µg/mL, partner 0.02 µg/mL): 0.932
fitness (S. pneumoniae D39V [1]; first compound 0.0018 µg/mL, partner 0.026 µg/mL): 0.973
fitness (S. pneumoniae D39V [1]; first compound 0.0035 µg/mL, partner 0.005 µg/mL): 0.942
fitness (S. pneumoniae D39V [1]; first compound 0.0035 µg/mL, partner 0.0065 µg/mL): 0.99
fitness (S. pneumoniae D39V [1]; first compound 0.0035 µg/mL, partner 0.01 µg/mL): 0.941
fitness (S. pneumoniae D39V [1]; first compound 0.0035 µg/mL, partner 0.013 µg/mL): ≥ 1
fitness (S. pneumoniae D39V [1]; first compound 0.0035 µg/mL, partner 0.02 µg/mL): 0.947
fitness (S. pneumoniae D39V [1]; first compound 0.0035 µg/mL, partner 0.026 µg/mL): 0.942
fitness (S. pneumoniae D39V [1]; first compound 0.007 µg/mL, partner 0.005 µg/mL): 0.934
fitness (S. pneumoniae D39V [1]; first compound 0.007 µg/mL, partner 0.0065 µg/mL): 0.634
fitness (S. pneumoniae D39V [1]; first compound 0.007 µg/mL, partner 0.01 µg/mL): 0.882
fitness (S. pneumoniae D39V [1]; first compound 0.007 µg/mL, partner 0.013 µg/mL): 0.708
fitness (S. pneumoniae D39V [1]; first compound 0.007 µg/mL, partner 0.02 µg/mL): 0.87
fitness (S. pneumoniae D39V [1]; first compound 0.007 µg/mL, partner 0.026 µg/mL): 0.548
Bliss interaction score (B. subtilis 168): -0.116
Bliss interaction score (S. aureus DSM 20231): -0.0289
Bliss interaction score (S. aureus Newman): 0.0648
Bliss interaction score (S. pneumoniae D39V [2]): 0.0762

CO/N=C(\C(=O)N[C@@H]1C(=O)N2C(C(=O)O)=C(COC(C)=O)CS[C@H]12)c1csc(N)n1 [Cefotaxime] + Clc1ccc(COC(Cn2ccnc2)c2ccc(Cl)cc2Cl)c(Cl)c1 [Miconazole]
fitness (S. pneumoniae D39V [1]; first compound 0.0018 µg/mL, partner 1.073 µg/mL): ≥ 1
fitness (S. pneumoniae D39V [1]; first compound 0.0018 µg/mL, partner 1.25 µg/mL): 0.919
fitness (S. pneumoniae D39V [1]; first compound 0.0018 µg/mL, partner 2.145 µg/mL): 0.967
fitness (S. pneumoniae D39V [1]; first compound 0.0018 µg/mL, partner 2.5 µg/mL): 0.96
fitness (S. pneumoniae D39V [1]; first compound 0.0018 µg/mL, partner 4.29 µg/mL): 0.94
fitness (S. pneumoniae D39V [1]; first compound 0.0018 µg/mL, partner 5 µg/mL): 0.936
fitness (S. pneumoniae D39V [1]; first compound 0.0035 µg/mL, partner 1.073 µg/mL): ≥ 1
fitness (S. pneumoniae D39V [1]; first compound 0.0035 µg/mL, partner 1.25 µg/mL): 0.866
fitness (S. pneumoniae D39V [1]; first compound 0.0035 µg/mL, partner 2.145 µg/mL): 0.907
fitness (S. pneumoniae D39V [1]; first compound 0.0035 µg/mL, partner 2.5 µg/mL): 0.9
fitness (S. pneumoniae D39V [1]; first compound 0.0035 µg/mL, partner 4.29 µg/mL): 0.866
fitness (S. pneumoniae D39V [1]; first compound 0.0035 µg/mL, partner 5 µg/mL): 0.911
fitness (S. pneumoniae D39V [1]; first compound 0.007 µg/mL, partner 1.073 µg/mL): 0.797
fitness (S. pneumoniae D39V [1]; first compound 0.007 µg/mL, partner 1.25 µg/mL): 0.749
fitness (S. pneumoniae D39V [1]; first compound 0.007 µg/mL, partner 2.5 µg/mL): 0.789
fitness (S. pneumoniae D39V [1]; first compound 0.007 µg/mL, partner 4.29 µg/mL): 0.613
fitness (S. pneumoniae D39V [1]; first compound 0.007 µg/mL, partner 5 µg/mL): 0.796
Bliss interaction score (B. subtilis 168): 0.104
Bliss interaction score (S. aureus DSM 20231): -0.0534
Bliss interaction score (S. aureus Newman): 0.0393
Bliss interaction score (S. pneumoniae D39V [2]): -0.0628
